In US9149536B2, “Conjugated antimicrobial agents” (priority 2009, dated 2015):
Values after ≈ are worked out from the molar mass of the structure shown. Like-named read-outs stand apart in the source and are kept apart here.

Legend:
E. coli R477-100 = test: MIC, double-microdilution, E. coli R477-100; format: cell-based, Escherichia coli
E. coli ATCC 25922 = test: MIC, double-microdilution, E. coli ATCC 25922; format: cell-based, Escherichia coli; conditions: for MIC E. coli ATCC 25922: Table 4; for MIC E. coli 25922: Table 6
E. coli AG100B = test: MIC, double-microdilution, E. coli AG100B; format: cell-based, Escherichia coli
Text: AG100B and AG100A are two kanamycin resistant Escherichia coli strains expressing APH(3′)-I aminoglycoside resistance enzyme.

E. coli AG100A = test: MIC, double-microdilution, E. coli AG100A; format: cell-based, Escherichia coli
B. subtilis ATCC 6633 = test: MIC, double-microdilution, B. subtilis ATCC 6633; format: cell-based; conditions: for MIC B. subtilis ATCC 6633: Table 4; for MIC Bacillus subtilis: Table 6
MRSA ATCC 43300 = test: microbe, parasite or virus in culture; format: cell-based, S. aureus; conditions: Table 4
E. coli BL21/pETSACG1 = test: microbe, parasite or virus in culture; format: cell-based; conditions: for MIC ratio BL21/pETSACG1 to BL21: MIC resistant strain divided by MIC background strain; for MIC BL21/pETSACG1: expressed enzyme APH(3′)-IIIa
Description: (§1) For this purpose, exemplary conjugates, according to some embodiments of the present invention, were tested against five isogenic E. coli strains. E. coli (pSF815) and E. coli (pET9d) are laboratory resistant strains derived by transformation of E. coli XL1 blue (background strain) with the pSF815 and pET9d plasmids, respectively. […] The last two isogenic strains used were E. coli BL21 (background strain) and E. coli (pETSACG1). […] These three enzymes are among the most prevalent modes of resistance found in aminoglycosides resistance strains.
(§2) The MIC ratios were calculated by dividing the MIC value against resistant strain to that against the respective background strain.

E. coli BL21 = test: microbe, parasite or virus in culture; format: cell-based; conditions: background strain
Description: as §1, §2

E. coli XL1 blue/pET9d = test: microbe, parasite or virus in culture; format: cell-based; conditions: for MIC ratio XL1 blue/pET9d to XL1 blue: MIC resistant strain divided by MIC background strain; for MIC XL1 blue/pET9d: expressed enzyme APH(3′)-Ia
Description: as §1, §2

E. coli XL1 blue/pSF815 = test: microbe, parasite or virus in culture; format: cell-based; conditions: for MIC ratio XL1 blue/pSF815 to XL1 blue: MIC resistant strain divided by MIC background strain; for MIC XL1 blue/pSF815: expressed enzyme AAC(6′)-APH(2″)
Description: as §1, §2

E. coli XL1 blue = test: microbe, parasite or virus in culture; format: cell-based; conditions: for MIC XL1 blue: background strain
Description: as §1, §2

APH(3′)-IIIa enzyme = biological target: T1, APH(3′)-IIIa enzyme (Enterococcus faecalis, UniProt P0A3Y5); format: biochemical
T1 construct: made in house; host or cells: E. coli BL21 carrying pETSACG1 (inferred)
T1 sequence (P0A3Y5 whole entry): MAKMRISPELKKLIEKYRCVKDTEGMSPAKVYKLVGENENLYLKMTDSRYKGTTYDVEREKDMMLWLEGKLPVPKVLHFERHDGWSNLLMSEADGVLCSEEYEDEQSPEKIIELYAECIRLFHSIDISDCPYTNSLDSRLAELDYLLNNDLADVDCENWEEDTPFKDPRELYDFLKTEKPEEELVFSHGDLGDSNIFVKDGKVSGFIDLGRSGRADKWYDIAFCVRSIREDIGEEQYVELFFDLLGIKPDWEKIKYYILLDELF

[1] = Table 4, kanamycin resistant, APH(3′)-I
[2] = compound as substrate of APH(3′)-IIIa

SMILES | MIC E. coli R477-100 (E. coli R477-100; Table 4) [µg/mL] | MIC E. coli ATCC 25922 (E. coli ATCC 25922) [µg/mL] | MIC E. coli AG100B (E. coli AG100B; [1]) [µg/mL] | MIC E. coli AG100A (E. coli AG100A; [1]) [µg/mL] | MIC B. subtilis ATCC 6633 (B. subtilis ATCC 6633) [µg/mL] | MIC MRSA ATCC 43300 (MRSA ATCC 43300) [µg/mL] | MIC ratio BL21/pETSACG1 to BL21 (E. coli BL21/pETSACG1) | MIC BL21/pETSACG1 (E. coli BL21/pETSACG1) [μg/ml] | MIC BL21 (E. coli BL21) [µg/mL] | MIC ratio XL1 blue/pET9d to XL1 blue (E. coli XL1 blue/pET9d) | MIC XL1 blue/pET9d (E. coli XL1 blue/pET9d) [μg/ml] | MIC ratio XL1 blue/pSF815 to XL1 blue (E. coli XL1 blue/pSF815) | MIC XL1 blue/pSF815 (E. coli XL1 blue/pSF815) [μg/ml] | MIC XL1 blue (E. coli XL1 blue) [µg/mL] | MIC E. coli R477-100 (E. coli R477-100; Table 6) [µg/mL] | MIC E. coli 25922 (E. coli ATCC 25922) [µg/mL] | MIC E. coli AG100B (E. coli AG100B; Table 6) [µg/mL] | MIC E. coli AG100A (E. coli AG100A; Table 6) [µg/mL] | MIC Bacillus subtilis (B. subtilis ATCC 6633) [µg/mL] | MIC E. coli XL1 blue/pET9d-aph(3′)-Ia (E. coli XL1 blue/pET9d; Table 6) [μg/ml] | also measured
NCC1OC(OC2C(C(=O)NCc3cn(Cc4cccc(CN5CCN(c6cc7c(cc6F)c(=O)c(C(=O)O)cn7C6CC6)CC5)c4)nn3)OC(OC3C(O)C(N)CC(N)C3OC3OC(CN)C(O)C(O)C3N)C2O)C(N)C(O)C1O (centres unmarked) [Compound 1o, N-((1-(3-((ciprofloxacin)methyl)benzyl)-1H-1,2,3-triazol-4-yl)-5″-methyl)neomycin carboxamide] | 6 (≈ 5.25 µM) | 6 (≈ 5.25 µM) | 12 (≈ 10.5 µM) | 0.75 (≈ 0.657 µM) | 3 (≈ 2.63 µM) | 6 (≈ 5.25 µM) | 1 | 0.4 | 0.4 (≈ 0.35 µM) | 1 | 6 | 4 | 24 | 6 (≈ 5.25 µM) | – | – | – | – | – | – | –
NC[C@H]1O[C@H](O[C@H]2[C@H](O)[C@@H](O[C@H]3O[C@H](CO)[C@@H](O)[C@H](N)[C@H]3O)[C@H](N)C[C@@H]2N)[C@H](O)[C@@H](O)[C@@H]1O [KanA, kanamycin A, reference compound] | – | – | – | – | – | – | – | – | – | – | – | – | – | – | 24 (≈ 49.5 µM) | 12 (≈ 24.8 µM) | >384 | 384 (≈ 793 µM) | 1.5 (≈ 3.1 µM) | >384 | MIC E. coli XL1 blue (E. coli XL1 blue; Table 6): 3 µg/mL (≈ 6.19 µM)
NCC1OC(OC2C(N)CC(NCc3cn(CC(O)CN4CCN(c5cc6c(cc5F)c(=O)c(C(=O)O)cn6C5CC5)CC4)nn3)C(OC3OC(CO)C(O)C(N)C3O)C2O)C(O)C(O)C1O (centres unmarked) [Compound 11f, 1-(4-(1-N-kanamycinmethyl)-1H-1,2,3-triazol-1-yl)-3-(ciprofloxacin)propan-2-ol] | – | – | – | – | – | – | – | – | – | – | – | – | – | – | 3 (≈ 3.15 µM) | 1.5 (≈ 1.57 µM) | 6 (≈ 6.3 µM) | 0.75 (≈ 0.787 µM) | 1.5 (≈ 1.57 µM) | 3 | MIC E. coli XL1 blue (E. coli XL1 blue; Table 6): 3 µg/mL (≈ 3.15 µM)
NCC1OC(OC2C(C(=O)NCc3cn(Cc4ccc(CN5CCN(c6cc7c(cc6F)c(=O)c(C(=O)O)cn7C6CC6)CC5)cc4)nn3)OC(OC3C(O)C(N)CC(N)C3OC3OC(CN)C(O)C(O)C3N)C2O)C(N)C(O)C1O (centres unmarked) [Compound 1p, N-((1-(4-((ciprofloxacin)methyl)benzyl)-1H-1,2,3-triazol-4-yl)-5″-methyl)neomycin carboxamide] | 6 (≈ 5.25 µM) | 6 (≈ 5.25 µM) | 12 (≈ 10.5 µM) | 1.5 (≈ 1.31 µM) | 3 (≈ 2.63 µM) | 3 (≈ 2.63 µM) | 1 | 0.4 | 0.4 (≈ 0.35 µM) | 1 | 6 | 1 | 6 | 6 (≈ 5.25 µM) | – | – | – | – | – | – | –
NCC1OC(OC2C(N)CC(NCc3cn(Cc4ccc(CN5CCN(c6cc7c(cc6F)c(=O)c(C(=O)O)cn7C6CC6)CC5)cc4)nn3)C(OC3OC(CO)C(O)C(N)C3O)C2O)C(O)C(O)C1O (centres unmarked) [Compound 11i, 4-(1-N-kanamycinmethyl)-1-(4-((ciprofloxacin)methyl)benzyl)-1H-1,2,3-triazole] | – | – | – | – | – | – | – | – | – | – | – | – | – | – | 6 (≈ 6.01 µM) | 6 (≈ 6.01 µM) | 12 (≈ 12 µM) | 0.75 (≈ 0.751 µM) | 3 (≈ 3 µM) | 3 | MIC E. coli XL1 blue (E. coli XL1 blue; Table 6): 3 µg/mL (≈ 3 µM)
NCC1OC(OC2C(C(=O)NCc3cn(CC(O)CN4CCN(c5cc6c(cc5F)c(=O)c(C(=O)O)cn6C5CC5)CC4)nn3)OC(OC3C(O)C(N)CC(N)C3OC3OC(CN)C(O)C(O)C3N)C2O)C(N)C(O)C1O (centres unmarked) [Compound 1m, N-((1-(2-hydroxy-3-(ciprofloxacin)propyl)-1H-1,2,3-triazol-4-yl)-5″-methyl)neomycin carboxamide] | 6 (≈ 5.47 µM) | 3 (≈ 2.74 µM) | 12 (≈ 10.9 µM) | 0.75 (≈ 0.684 µM) | 3 (≈ 2.74 µM) | 12 (≈ 10.9 µM) | 1 | 0.2 | 0.2 (≈ 0.182 µM) | 2 | 12 | 8 | 48 | 6 (≈ 5.47 µM) | – | – | – | – | – | – | MIC against E. coli (pETSACG1) (E. coli BL21/pETSACG1; molar expression of 0.2 μg/ml): 5.5 μM; Km (APH(3′)-IIIa enzyme): 87 µM; Km (APH(3′)-IIIa enzyme; [2]): 86.8 ± 8.9 µM; kcat (APH(3′)-IIIa enzyme; [2]): 2.5 ± 0.1 s⁻¹
NCC1O[C@@H](O[C@H]2C(N)C[C@H](NCc3cn(CCN4CCN(c5cc6c(cc5F)c(=O)c(C(=O)O)cn6C5CC5)CC4)nn3)C(OC3O[C@@H](CO)C(O)C(N)[C@@H]3O)C2O)C(O)C(O)[C@H]1O (some centres unmarked) [Compound 11a, 4-(1-N-kanamycinmethyl)-1-(2-(ciprofloxacin)ethyl)-1H-1,2,3-triazole] | – | – | – | – | – | – | – | – | – | – | – | – | – | – | – | – | – | – | – | – | MIC (E. coli R477-100; Escherichia coli, R477100, read-out: MIC E. Coli R477-100): 6 µg/mL (≈ 6.5 µM); MIC (E. coli ATCC 25922; Escherichia coli, ATCC25922, read-out: MIC E. coli 25922): 3 µg/mL (≈ 3.25 µM); MIC (E. coli AG100B; Escherichia coli, AG100B, read-out: MIC E. coli AG100B, Table 6): 12 µg/mL (≈ 13 µM); MIC (E. coli AG100A; Escherichia coli, AG100A, read-out: MIC E. coli AG100A, Table 6): 0.75 µg/mL (≈ 0.813 µM); MIC (B. subtilis ATCC 6633; Bacillus subtilis, ATCC6633, read-out: MIC Bacillus subtilis): 1.5 µg/mL (≈ 1.63 µM); MIC (E. coli XL1 blue/pET9d; Escherichia coli, XL1BLUE/PET9D, Table 6, read-out: MIC E. coli XL1 blue/pET9d-aph(3′)-Ia): 6 µg/mL (≈ 6.5 µM); MIC (E. coli XL1 blue; Escherichia coli, XL1BLUE, Table 6, read-out: MIC E. coli XL1 blue): 6 µg/mL (≈ 6.5 µM)
